IC50 data for one compound are collected here from paper PMC4640650 (Science Advances, 2015).

The test deals with ATP synthase c-subunit (c9 rotor ring) (Mycolicibacterium phlei, UniProt A0A5N5V239). Put plainly: X-ray cocrystal structure. It is filed as binding.

Usually IC50 stands for the point on the concentration scale where inhibition reaches its midpoint. A high value points to a need for much substance. As for `COc1nc2ccc(Br)cc2cc1[C@@H](c1ccccc1)[C@@](O)(CCN(C)C)c1cccc2ccccc12` [BDQ, Bedaquiline], the IC50 lay within 20 to 25 nM.
